Reference: a melting point compilation (Tetko et al.; mined from patent text by program, amines drawn as free bases though some values may be those of a salt)

Compound	melting point [°C]
COC(=O)C=Cc1ccc(N2CCN(CCC3CCN(C(=O)OC(C)(C)C)CC3)C2=O)cc1	148 to 149
Cc1cc2c3c(ccc2[nH]1)OCC(CN1CC=C(c2c[nH]c4ccccc24)CC1)O3 (stereo unspecified)	212 to 215
CCSC1c2cccc(O)c2C(=O)c2c(O)cccc21	117 to 118
Oc1c(C(=S)NCc2ccc(Cl)cc2)cnc2ccc(CN3CCOCC3)cc12	215 to 216
O=C(O)c1cn(C2CC2)c2c(F)c(N3CC(CNC(=O)C(F)(F)F)C3)c(F)cc2c1=O	145 to 150
FC(F)(F)c1nncn1-c1ccc(Cl)cc1	108
CCOC(=O)c1c(O)c2cccnc2n(Cc2ccc(OC)cc2)c1=O	153
CC(=O)Nc1nc(NC(C)=O)nc(-c2ccc(S(=O)(=O)c3ccccc3)cc2)n1	> 260
CCN(c1ccc(C(=O)O)cc1)c1cc2c3c(c1)CCCC3CCC2	284 to 285
CC(C)[C@H]1CC[C@H](C(=O)N[C@H](Cc2ccc(OCCN(C)c3ccccn3)cc2)C(=O)O)CC1	154 to 155
Cc1oc(-c2ccco2)nc1COc1ccc(CCl)cn1	95 to 96
CCC1C(C)=NN=C(c2ccc(O)c(OC)c2)c2cc(O)c(O)cc21 (stereo unspecified)	252 to 253
CC(=O)OC1CSC(Oc2ccc(-c3ccc(CO)cc3)nc2)C(OC(C)=O)C1OC(C)=O (stereo unspecified)	157
CCOC(=O)c1nn(-c2ccc(Cl)cc2Cl)c(-c2ccc(Cl)cc2)c1C#N	112
CN(C)c1nc2sc3c(NCc4ccccn4)ncnc3c2c2c1COC(C)(C)C2	217 to 218
CCC(C(=O)N(C)C)n1ccc(-c2ccccc2)n1 (stereo unspecified)	101 to 103
COc1ccc2[nH]cc(CC(=O)N3C[C@@H]4[C@H](C3)[C@@](O)(c3ccccc3OC)[C@H](O)CC4(c3ccccc3)c3ccccc3)c2c1 (racemic)	204 to 206
Cc1ccc(S(=O)(=O)N2CCCC(S(=O)(=O)c3cccc(Cl)c3)C2)cc1 (stereo unspecified)	282 to 284
O=C1CCC(C2CCCCC2)C(=O)C1 (stereo unspecified)	137 to 140
Cc1ccc(NC(=O)NCC2(c3ccccc3)CCCCC2)cc1	135 to 137
CCCn1c(C(=O)OC)cc(=O)c2oc3ccc(Cl)cc3c(=O)c21	240 to 244
COc1cc2c(cc1OC)CN(C(=O)Cc1ccc(-c3ccccc3)cc1)CC2	109 to 111
COc1cc(CCCC#N)ccc1OCc1nc(-c2ccco2)oc1C	94 to 95
CCc1nc(C#N)c(N2CCN(c3ccccc3)CC2)nc1C	99 to 101

Compound	melting point [°C]
Cc1ccccc1-c1cc(Cl)cc2c1NC(CN)CO2 (stereo unspecified)	86
COC(=O)C=Cc1ccc(OCC2CCCCC2)cc1	104
C=C(C)c1ccccc1C(=O)O	71.6 to 72.5
Cc1cn2ccc(N)c(Br)c2n1	158 to 160
Cn1cnc(COc2nc3c(cc2-c2cccc(F)c2)nnn3-c2ccccc2F)n1	202 to 205
COc1cc2c(c(C(=O)c3ccccc3)c1)NC(=O)C2	154
COC(=O)Cc1n[nH]c2ccccc12	146
NCCNc1cc(Cl)cc(NCCN)c1[N+](=O)[O-]	113
CSc1nccc(-c2cccc(C(F)(F)F)c2)n1	89 to 90
CCCC(=O)c1cnc2ccc(COCc3ccccc3)cc2c1Cl	85 to 86
CC(=O)Nc1nsc2ccc(NS(=O)(=O)c3cc(Cl)ccc3Cl)cc12	169 to 172
CC(=O)Nc1nc(C)c(S(=O)(=O)NCCN(C)C)s1	143
N#CC(O)c1cccc2c(-c3ccccc3)c([N+](=O)[O-])oc12 (stereo unspecified)	137 to 139
OCc1cc2cc(-c3ccccc3)ccc2[nH]1	115 to 116
O=C1Cc2c(cc3ccccc3c2Br)C(c2ccccc2Cl)N1 (stereo unspecified)	256 to 257
CCCc1nn(-c2ccc(C(F)(F)F)cn2)cc1CCCOc1ccc(OC)c(CC(=O)O)c1	135 to 136
CC(=O)NC1CCc2c([nH]c3cc(O)ccc23)C1 (stereo unspecified)	245 to 246
C=CCN1C(=O)C(C)(CN2CCN(c3ccccc3OC)CC2)N=C1c1cccnc1 (stereo unspecified)	66 to 69
NCC(=O)NC(Cc1ccccn1)c1ccccc1 (stereo unspecified)	75 to 77
CSc1nc(Cl)nc(Cl)n1	57 to 59
CC(NC(=O)c1ccccc1)c1c[nH]c(-c2ccccc2)n1 (stereo unspecified)	132 to 135
O=C(C1CCN(c2ccncc2)CC1)N1CCN(S(=O)(=O)c2ccc(-c3ccccn3)cc2)CC1	224 to 226
OC1CSC(Oc2cc(-c3ccncc3)cc(F)c2F)C(O)C1O (stereo unspecified)	151
CC1(C)OC(=O)Nc2ccc(-c3cccc(Cl)c3)cc21	158 to 159

Compound	melting point [°C]
CNC(=S)NS(=O)(=O)c1cc(CCNC(=O)/C=C/c2cccs2)ccc1OCc1ccccc1	94
CC(C)(C)OC(=O)NC(Cc1ccccc1)C(O)CNCC(O)C(Cc1ccccc1)NC(=O)SC(C)(C)C (stereo unspecified)	140 to 141
Nc1ccc(-c2ccncc2)cc1[N+](=O)[O-]	234 to 238
Cc1nc(C)c(Cl)c(CNCc2ccc(Oc3ccc4ncc([N+](=O)[O-])n4n3)cn2)n1	183 to 184
COc1cc([N+](=O)[O-])ccc1F	69 to 71
CN1C(=O)c2cnc(-c3ccccc3)nc2N(C(=O)CN2CCCC2)c2ccccc21	196
Nc1ccc(OCC(=O)OCCOC(=O)COc2ccc(N)cc2)cc1	124 to 126
CCc1c(C#N)oc(=O)n1S(=O)(=O)c1c(C)noc1C	117 to 122
COCOc1cc(F)ccc1-c1cc(-c2cccc(C(=O)OC)c2)c(C#N)c(N)n1	155 to 158
Cc1oc(-c2ccccc2)nc1COc1ccc(Cn2cc(CCC(=O)O)c(-c3cccs3)n2)cc1	172 to 173
CCC(CC)n1cc(Br)nc(N2CCc3cc(OC)cc(Br)c32)c1=O	133 to 135
COC(=O)/C(=C/c1ccc(OCCc2nc(-c3ccccc3)oc2C)c2ccsc12)OC	165
CCc1nc2c(cnn2CC)c(NC2CCOCC2)c1CNC(=O)c1cccc(C(=O)NCc2cc(Cl)cc(-c3cccc(CN4CCNCC4)c3)c2)c1	119 to 122
CCS(=O)(=O)c1cc(C(=O)NCC2CCCN2CC2=CCCCC2)c(OC)cc1N (stereo unspecified)	192
CCOC(=O)c1c(C)nc2c(ncn2C)c1OCCC(C)C	64 to 66
O=c1ccc(-c2c(-c3ccccc3)nn3ccccc23)nn1-c1ccccc1	170
CCn1nc(Br)c([N+](=O)[O-])c1NCc1ccccc1	92
CN1C(=O)[C@H](NC(=O)CCCc2cccs2)N=C(c2ccccc2)c2ccccc21	170 to 180
CC1(C)OC(=O)C(Oc2ccc(Cl)c(Cl)c2)=C1c1ccc(S(C)(=O)=O)cc1	144 to 145
COCc1ccoc1-c1cccc(-n2c(N)nc3ccccc32)c1	134 to 136
O=C(O)[C@H](Cc1ccc(OCc2ccccc2)cc1)NS(=O)(=O)c1ccc(F)cc1	138 to 139
NC1=NC(=O)N(CC2CC2)CC1Br (stereo unspecified)	139 to 143
CCCC(C)C(=O)N1CC(NC(=O)Nc2cccc(C(=O)O)c2)C(=O)N(CC(=O)c2ccccc2C)c2cc(C)ccc21 (stereo unspecified)	227 to 229
